According to patent publication US20220249596A1, “PIC1 PEPTIDE COMPOSITIONS AND METHODS OF USE THEREOF FOR TREATMENT OF HYPOXIC ISCHEMIC ENCEPHALOPATHY” (REALTA HOLDINGS, LLC, priority 2019, published 2022):
No end group written: not given here.

Columns and labels:
Assay type in all cases: in vivo, rat
[1] = tested on: C5a; test: Systemic C5a level in plasma, fluorescent immunoassay; conditions: 12 and 24 hours after initial insult, P<0.05; persisted to 48 hours
Description: The local and systemic effects of NT, HT and PIC1 treatment on the complement cascade were measured. CNS C1q levels and systemic C1q and C5a levels were measured using a fluorescent immunoassay.
Systemic C1q and C5a levels were measured as follows. 100 μl of 1:5 plasma in 1×PBS was added to the wells of a plate described above and incubated overnight at 4° C. The plates were washed 3 times with PBST and blocked with NDS or NGS for one hour. Samples were probed with either 1:50 goat anti-human C1q (Complement Technology) in NDS or 1:200 mouse anti-human C5a (Human Complement Component C5a DuoSet ELISA, R&D Systems, Inc., Minneapolis, Minn.) in NGS for one hour at RT. The wells were washed and 1:500 donkey anti-goat 488 (Life Technologies) in NDS or 1:500 goat anti-mouse AF 568 (Life Technologies) in NGS was added, and incubated for one hour at RT. The wells were washed and the plate read using a Synergy HT (BioTek). Systemic C3a levels in plasma (1:20 dilution) were measured using a standard ELISA, according to the manufacturer's instructions (Rat C3a ELISA Kit, TSZ ELISA, Waltham, Mass.).

[2] = tested on: neurons, microglia and astrocytes of ipsilateral cortex and hippocampus; test: Immunofluorescence of neurons (NeuN), microglia (Iba1), astrocytes (GFAP) after HIE; conditions: P<0.05
Description: (§1) TUNEL/C1q staining was performed as follows. Five (5) μm paraffin-embedded coronal brain sections on slides were incubated (1 hour; 60° C.), deparaffinized with xylene, and rehydrated with ethanol (100%, 95%, 70%; RT). Endogenous peroxidase activity was blocked (0.3% H2O2/MeOH; 10 minutes; RT), and heat induced antigen retrieval was performed (when indicated) using 10 mM sodium citrate, pH 6.0. 10% normal serum (from the same species as the host of the secondary antibody) was used to block and to dilute antibodies. Samples were washed twice for 10 min each, in PBST between each step.
(§2) After blocking for one hour at room temperature, tissues were incubated with 1:300 goat anti-Iba1 (Abcam), 1:250 goat anti-GFAP (Abcam), 1:500 chicken anti-NeuN (Millipore, Billerica, Mass.), or 1:100 mouse anti-NeuN (Millipore) in host appropriate blocking serum overnight at 4° C. Primary antibodies were probed with 1:500 donkey anti-goat (Abcam), goat anti-chicken (Abcam), or goat anti-mouse (Abcam) AF 488 or 568 in appropriate blocking serum for one hour at room temperature. Tissues were blocked a second time with NGS for one hour at room temperature. Samples were then probed with 1:300 mouse anti-C1q (Abcam), 1:300 rabbit anti-C9, 1:50 rabbit anti-MPO (Abcam), 1:200 rabbit anti-TMEM (Novus Bio, Centennial, Colo.), 1:100 rabbit anti-C3aR (Bioss), 1:100 Mouse anti-C5aR (Hycult), or 1:200 chicken anti-C3/C3a (Abcam) in NGS overnight at 4° C. and then with 1:500 goat anti-mouse, rabbit, or chicken (Abcam) AF 488 or 568 in NGS for one hour at room temperature.
Fluorescent images of the cortex were taken at 20× magnification using a digital camera (DP70, Olympus Center, Valley Forge, Pa.), mounted on a BX50 Olympus microscope. Adobe Photoshop CS5 was used to merge immunofluorescence images, and Image J (National Institutes of Health) was used for analysis.

[3] = tested on: C3; test: Immunofluorescence quantification of C3 in brain; conditions: ipsilateral cortex and hippocampus, 48 hours, versus NT, P<0.05
Description: as §1
After blocking for one hour at room temperature, tissues were incubated with 1:300 goat anti-Iba1 (Abcam), 1:250 goat anti-GFAP (Abcam), 1:500 chicken anti-NeuN (Millipore, Billerica, Mass.), or 1:100 mouse anti-NeuN (Millipore) in host appropriate blocking serum overnight at 4° C. Primary antibodies were probed with 1:500 donkey anti-goat (Abcam), goat anti-chicken (Abcam), or goat anti-mouse (Abcam) AF 488 or 568 in appropriate blocking serum for one hour at room temperature. Tissues were blocked a second time with NGS for one hour at room temperature. […]

[4] = tested on: TMEM119 (microglia); test: TMEM119 and Iba1/TMEM119 staining of cortex; conditions: 48 hours after injury
Description: as §2
Accordingly, a more specific microglial marker was used to differentiate microglia from infiltrated peripheral macrophages. TMEM119 is a reliable microglial marker that discriminates resident microglia from blood-derived macrophages in the brain [21].

[5] = Beam walk assay, fine motor coordination and balance; conditions: versus NT animals
Description: Fine motor coordination and balance was assessed by a beam walk assay, which was performed as follows. Gross motor function and balance was evaluated using the beam walking test 6 weeks after HIE. Beams of varying widths (19 mm, 13 mm, or 6 mm) were used that led to a dark escape box. Each beam was 90 cm long and elevated 60 cm from the ground. The goal of this test is for the rat to stay upright and walk across elevated narrow beams of decreasing width (0.75 and 0.25 inches, or 19 mm and 6 mm) to a safe platform.
Rats were placed on a loading platform on the proximal end of the apparatus, and instinctively walked towards the box when placed on a beam. Rats were trained on each beam prior to the test. On the test day, rats were placed on the loading platform, and videos were recorded. Rats were given up to 5 attempts to cross each beam. Failures, i.e., inability to cross along with right and left foot slips, were analyzed by an investigator blinded to the treatment

IALILEPICCQERAA-dPEG24 (cysteine pairing not given here) [PIC1]
systemic C5a levels, NT animals relative to PIC1-treated animals [1]: significantly higher | neuronal density ([2]; 48 hours, versus NT and HT): higher neuronal density | astrogliosis ([2]; versus NT): reduced astrogliosis | microglial numbers and size ([2]; versus NT): reduced microglial numbers and size | C3 expression [3]: decreased expression | combined Iba1/TMEM119 staining in the cortex ([4]; versus NT and HT animals): almost two-fold decrease | TMEM119 expression in the cortex ([4]; versus NT brains): almost a three-fold decrease | beam walk performance ([5]; 0.25 inch beam): performed significantly better | beam walk performance ([5]; 0.75 inch beam): performed significantly better
